Experimental data as given in patent publication US20040224958A1, “Pyridopyrimidinone derivatives for treatment of neurodegenerative disease” (priority 2000, published 2004).
pIC50: −log10 of the molar value.

test system: not given; experiment: not given; conditions: not given

First: CCOC(=O)C=Cc1cnc(Nc2ccccc2)nc1N [Example 28, Ethyl 3-(4-Amino-2-phenylamino-pyrimidin-5-yl)acrylate]
Second: COC(=O)Cn1c(=O)ccc2cnc(Nc3ccccc3)nc21 [Example 36]
The melting point of the first is lower: 190 to 192 °C for the first, 232 to 233 °C for the second.

First: CCn1c(=O)ccc2cnc(Nc3ccc(-n4cccc4)cc3)nc21 [Example 110, 8-Ethyl-2-(4-pyrrol-1-yl-phenylamino)-8H-pyrido[2,3-d]pyrimidin-7-one]
Second: O=c1ccc2cnc(Nc3ccc(-n4cccn4)cc3)nc2n1C1CCCC1 [Example 191, 8-Cyclopentyl-2-(4-pyrazol-1-yl-phenylamino)-8H-pyrido[2,3-d]pyrimidin-7-one]
The melting point of the first is higher: 220 to 222 °C for the first, 197 to 198 °C for the second.

Compared with `CC(C)n1c(=O)ccc2cnc(Nc3ccc(O)cc3)nc21` [Example 112, 2-(4-Hydroxy-phenylamino)-8-isopropyl-8H-pyrido[2,3-d]pyrimidin-7-one], `CC(C)n1c(=O)ccc2cnc(Nc3ccc(OCCN4CCOCC4)cc3)nc21` [Example 141, 8-Isopropyl-2-[4-(2-morpholin-4-yl-ethoxy)-phenylamino]-8H-pyrido[2,3-d]pyrimidin-7-one] is lower in melting point: 226 to 228 °C for the first, 118 to 119 °C for the second.

First: CN1CCN(c2ccc(Nc3ncc4ccc(=O)n(-c5ccccc5)c4n3)cc2)CC1 [Example 113, 2-[4-(4-Methyl-piperazin-1-yl)-phenylamino]-8-phenyl-8H-pyrido[2,3-d]pyrimidin-7-one]
Second: CN1CCN(c2ccc(Nc3ncc4ccc(=O)n(CCCOCc5ccccc5)c4n3)cc2)CC1 [Example 115, 8-(3-Benzyloxy-propyl)-2-[4-(4-methyl-piperazin-1-yl)-phenylamino]-8H-pyrido[2,3-d]pyrimidin-7-one]
The melting point of the first is higher: 259 to 262 °C for the first, 148 to 150 °C for the second.

Compared with `CCN(CC)CCOc1ccc(Nc2ncc3ccc(=O)n(CCCOCc4ccccc4)c3n2)cc1` [Example 116, 8-(3-Benzyloxy-propyl)-2-[4-(2-diethylamino-ethoxy)-phenylamino]-8H-pyrido[2,3-d]pyrimidin-7-one], `CCN(CC)CCOc1ccc(Nc2ncc3ccc(=O)n(C4CCCCCC4)c3n2)cc1` [Example 156, 8-Cycloheptyl-2-[4-(2-diethylamino-ethoxy)-phenylamino]-8H-pyrido[2,3-d]pyrimidin-7-one] is higher in melting point: 70 to 72 °C for the first, 121 to 122 °C for the second.

First: O=c1ccc2cnc(Nc3ccc(N4CCCCC4)cc3)nc2n1C1CCCCC1 [Example 142, 8-Cyclohexyl-2-(4-piperidin-1-yl-phenylamino)-8H-pyrido[2,3-d]pyrimidin-7-one]
Second: O=c1ccc2cnc(Nc3ccc(N4CCSCC4)cc3)nc2n1C1CCCCC1 [Example 177, 8-Cyclohexyl-2-(4-thiomorpholin-4-yl-phenylamino)-8H-pyrido[2,3-d]pyrimidin-7-one]
The melting point of the first is lower: 198 to 200 °C for the first, 213 to 214 °C for the second.

First: CC1CN(c2ccc(Nc3ncc4ccc(=O)n(C5CCCCC5)c4n3)cc2)CC(C)N1CCO (centres unmarked) [Example 143, 8-Cyclohexyl-2-{4-[4-(2-hydroxy-ethyl)-3,5-dimethyl-piperazin-1-yl]-phenylamino}-8H-pyrido[2,3-d]pyrimidin-7-one]
Second: O=c1ccc2cnc(Nc3ccc(N4CCC(CCO)CC4)cc3)nc2n1C1CCCCC1 [Example 216, 8-Cyclohexyl-2-{4-[4-(2-hydroxy-ethyl)-piperidin-1-yl]-phenylamino}-8H-pyrido[2,3-d]pyrimidin-7-one]
The melting point of the first is lower: 175 to 177 °C for the first, 236 to 237 °C for the second.

First: CCN(CC)CCOc1ccc(Nc2ncc3ccc(=O)n(C4CCCCC4)c3n2)cc1C [Example 150, 8-Cyclohexyl-2-[4-(2-diethylamino-ethoxy)-3-methyl-phenylamino]-8H-pyrido[2,3-d]pyrimidin-7-one]
Second: O=c1ccc2cnc(Nc3ccc(F)cc3)nc2n1C1CCCCCC1 [Example 184, 8-Cycloheptyl-2-(4-fluoro-phenylamino)-8H-pyrido[2,3-d]pyrimidin-7-one]
The melting point of the first is lower: 119 to 121 °C for the first, 198 to 199 °C for the second.

First: O=c1ccc2cnc(NC3CCCCC3)nc2n1C1CCCCC1 [Example 153, 8-Cyclohexyl-2-cyclohexylamino-8H-pyrido[2,3-d]pyrimidin-7-one]
Second: Nc1ncc2ccc(=O)n(C3CCCCC3)c2n1 [Example 226, 2-Amino-8-cyclohexyl-8H-pyrido[2,3-d]pyrimidin-7-one]
The melting point of the first is higher: 169 to 170 °C for the first, 155 °C for the second.

First: O=c1ccc2cnc(Nc3ccccc3)nc2n1C1CCCCCC1 [Example 155, 8-Cycloheptyl-2-phenylamino-8H-pyrido[2,3-d]pyrimidin-7-one]
Second: O=c1ccc2cnc(Nc3ccccc3)nc2n1CC1CCCCC1 [Example 182, 8-Cyclohexylmethyl-2-phenylamino-8H-pyrido[2,3-d]pyrimidin-7-one]
The melting point of the first is lower: 156 to 158 °C for the first, 230 to 231 °C for the second.

First: O=c1ccc2cnc(Nc3ccc(N4CCCCC4)cc3)nc2n1CCCOC1CCCCO1 (centres unmarked) [Example 158]
Second: O=c1ccc2cnc(Nc3ccc(N4CCCCC4)cc3)nc2n1CC1CCCCC1 [Example 183, 8-Cyclohexylmethyl-2-(4-piperidin-1-yl-phenylamino)-8H-pyrido[2,3-d]pyrimidin-7-one]
The melting point of the first is lower: 85 to 86 °C for the first, 212 to 213 °C for the second.

Compared with `CC(C)(C)OC(=O)C1CCCN1c1ccc(Nc2ncc3ccc(=O)n(C4CCCCC4)c3n2)cc1` (centres unmarked) [Example 170, 1-[4-(8-Cyclohexyl-7-oxo-7,8-dihydro-pyrido[2,3-d]pyrimidin-2-ylamino)-phenyl]-pyrrolidine-2-carboxylic acid tert-butyl ester], `O=c1ccc2cnc(Nc3ccc(N4CCCCC4CO)cc3)nc2n1C1CCCC1` (centres unmarked) [Example 207, 8-Cyclopentyl-2-[4-(2-hydroxymethyl-piperidin-1-yl)-phenylamino]-8H-pyrido[2,3-d]pyrimidin-7-one] is lower in melting point: 144 to 145 °C for the first, 135 to 136 °C for the second.

Compared with `O=c1ccc2cnc(Nc3ccccc3)nc2n1C1CC2CCC1C2` (centres unmarked) [Example 180, 8-Bicyclo[2.2.1]hept-2-yl-2-phenylamino-8H-pyrido[2,3-d]pyrimidin-7-one], `O=c1ccc2cnc(Nc3ccc(-n4cccn4)cc3)nc2n1C1CC2CCC1C2` (centres unmarked) [Example 218, 8-Bicyclo[2.2.1]hept-2-yl-2-(4-pyrazol-1-yl-phenylamino)-8H-pyrido[2,3-d]pyrimidin-7-one] is higher in melting point: 225 to 226 °C for the first, 234 to 235 °C for the second.

First: O=c1ccc2cnc(Nc3cccc(N4CCCCC4)c3)nc2n1C1CCCCCC1 [Example 201, 8-Cycloheptyl-2-(3-piperidin-1-yl-phenylamino)-8H-pyrido[2,3-d]pyrimidin-7-one]
Second: O=c1ccc2cnc(Nc3ccc(N4CCCC(O)C4)cc3)nc2n1C1CCCC1 (centres unmarked) [Example 206, 8-Cyclopentyl-2-[4-(3-hydroxy-piperidin-1-yl)-phenylamino]-8H-pyrido[2,3-d]pyrimidin-7-one]
The melting point of the first is lower: 123 to 124 °C for the first, 178 to 179 °C for the second.

Compared with `O=c1ccc2cnc(Nc3cccc(OC(F)(F)C(F)F)c3)nc2n1C1CC2CCC1C2` (centres unmarked) [Example 213, 8-Bicyclo[2.2.1]hept-2-yl-2-[3-(1,1,2,2-tetrafluoro-ethoxy)-phenylamino]-8H-pyrido[2,3-d]pyrimidin-7-one], `CN(C)CCCN1CCN(c2ccc(Nc3ncc4ccc(=O)n(C5CC6CCC5C6)c4n3)cc2)CC1` (centres unmarked) [Example 230, 8-Bicyclo[2.2.1]hept-2-yl-2-{4-[4-(3-dimethylamino-propyl)-piperazin-1-yl]-phenylamino}-8H-pyrido[2,3-d]pyrimidin-7-one] is higher in melting point: 192 °C for the first, 212 to 213 °C for the second.

First: O=c1ccc2cnc(Nc3ccc(N4CCC(CCCN5CCOCC5)CC4)cc3)nc2n1C1CC2CCC1C2 (centres unmarked) [Example 217, 8-Bicyclo[2.2.1]hept-2-yl-2-[4-[4-(3-morpholin-4-yl-propyl)-piperidin-1-yl]-phenylamino]-8H-pyrido[2,3-d]pyrimidin-7-one]
Second: O=c1ccc2cnc(Nc3ccc(N4CCC(CCN5CCOCC5)CC4)cc3)nc2n1C1CC2CCC1C2 (centres unmarked) [Example 259, 8-Bicyclo[2.2.1]hept-2-yl-2-[4-[4-(2-morpholin-4-yl-ethyl)-piperidin-1-yl]-phenylamino]-8H-pyrido[2,3-d]pyrimidin-7-one]
The melting point of the first is lower: 185 to 186 °C for the first, 223 to 224 °C for the second.

First: COc1ccc(CNc2ncc3ccc(=O)n(C4CCCCC4)c3n2)cc1 [Example 225, 8-Cyclohexyl-2-(4-methoxy-benzylamino)-8H-pyrido[2,3-d]pyrimidin-7-one]
Second: CCOC(=O)N1CCC(n2c(=O)ccc3cnc(Nc4ccc(N5CCCCC5)cc4)nc32)CC1 [Example 246, 4-[7-Oxo-2-(4-piperidin-1-yl-phenylamino)-7H-pyrido[2,3-d]pyrimidin-8-yl]-piperidine-1-carboxylic acid ethyl ester]
The melting point of the first is lower: 165 °C for the first, 231 to 233 °C for the second.

Compared with `O=c1ccc2cnc(Nc3ccc(N4CCCCC4)cc3)nc2n1C1CCCC1O` (centres unmarked) [Example 242, 8-(2-Hydroxy-cyclopentyl)-2-(4-piperidin-1-yl-phenylamino)-8H-pyrido[2,3-d]pyrimidin-7-one], `O=c1ccc2cnc(Nc3ccc(N4CCCC(CN5CCOCC5)C4)cc3)nc2n1C1CC2CCC1C2` (centres unmarked) [Example 263, 8-Bicyclo[2.2.1]hept-2-yl-2-[4-(3-morpholin-4-ylmethyl-piperidin-1-yl)-phenylamino]-8H-pyrido[2,3-d]pyrimidin-7-one] is lower in melting point: 230 to 232 °C for the first, 155 to 157 °C for the second.

First: CC(C)n1c(=O)ccc2cnc(N)nc21 [Example 257, 2-Amino-8-isopropyl-8H-pyrido[2,3-d]pyrimidin-7-one]
Second: CC(C)n1c(=O)ccc2cnc(Nc3ccc(N4CCC(CCCN5CCOCC5)CC4)cc3)nc21 [Example 260, 8-Isopropyl-2-{4-[4-(3-morpholin-4-yl-propyl)-piperidin-1-yl]-phenylamino}-8H-pyrido[2,3-d]pyrimidin-7-one]
The melting point of the first is lower: 153 °C for the first, 195 to 196 °C for the second.

With `O=c1ccc2cnc(Nc3ccc(N4CCCC(CCCN5CCOCC5)C4)cc3)nc2n1C1CC2CCC1C2` (centres unmarked) [Example 262, 8-Bicyclo[2.2.1]hept-2-yl-2-{4-[3-(3-morpholin-4-yl-propyl)-piperidin-1-yl]-phenylamino}-8H-pyrido[2,3-d]pyrimidin-7-one] the melting point was 156 to 157 °C.

target: cdk4/D (Homo sapiens, UniProt P11802); experiment: Cyclin-Dependent Kinase 4 (cdk4) Assay; assay type: biochemical; conditions: Table 1; read-out: cdk4/D IC50
Sequence (P11802 whole entry): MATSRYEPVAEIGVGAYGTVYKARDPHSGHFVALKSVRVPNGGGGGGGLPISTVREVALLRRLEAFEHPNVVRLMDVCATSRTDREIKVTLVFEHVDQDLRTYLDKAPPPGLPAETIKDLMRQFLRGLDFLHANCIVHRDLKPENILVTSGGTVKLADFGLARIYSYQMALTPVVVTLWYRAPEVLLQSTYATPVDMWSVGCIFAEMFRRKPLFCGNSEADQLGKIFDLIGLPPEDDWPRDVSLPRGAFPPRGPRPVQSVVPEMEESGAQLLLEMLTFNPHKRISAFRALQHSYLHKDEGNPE
Sequence (P24385 whole entry, further chain): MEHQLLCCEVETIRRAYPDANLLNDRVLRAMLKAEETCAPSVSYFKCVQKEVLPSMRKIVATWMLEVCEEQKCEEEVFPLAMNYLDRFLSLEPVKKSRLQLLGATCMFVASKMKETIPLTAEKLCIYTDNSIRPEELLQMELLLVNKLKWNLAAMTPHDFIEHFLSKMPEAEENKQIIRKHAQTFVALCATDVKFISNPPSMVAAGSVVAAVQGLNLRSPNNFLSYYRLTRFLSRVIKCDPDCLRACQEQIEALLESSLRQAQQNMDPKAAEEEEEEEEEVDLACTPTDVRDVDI

`COC(=O)Cn1c(=O)ccc2cnc(Nc3ccccc3)nc21` [Example 36] showed a pIC50 of 4.51.

same assay, conditions: Table 2, Formula II compounds; read-out: cdk4 IC50

With `CCOC(=O)C=Cc1cnc(Nc2ccccc2)nc1N` [Example 28, Ethyl 3-(4-Amino-2-phenylamino-pyrimidin-5-yl)acrylate] the pIC50 was 4.19.
